Patent publication US11198704B2, “Butane-tetraol-based amphiphiles and uses thereof” (Industry-University Cooperation Foundation Hanyang …, priority 2016, dated 2021)

Tests used:
[1] = Hydrodynamic radius and size distribution of micelles by dynamic light scattering (DLS); assay type: physicochemical; conditions: detergent 1.0% by weight
Experimental: A method of measuring the radius of the micelles is not particularly limited, but the radius of the micelles may be measured using methods well known in the related art. For example, the radius of the micelles may be measured through a dynamic light scattering (DLS) experiment.
Specifically, the critical micelle concentration (CMC) was measured using diphenylhexatriene (DPH) as a fluorescent stain, and the hydrodynamic radii (Rh) of the micelles formed by each preparation (1.0% by weight) were measured through a dynamic light scattering (DLS) experiment.

[2] = molecular target: T1, melibiose permease (MelB) (Salmonella typhimurium, UniProt P30878); assay: MelB extraction and thermostability, SDS-PAGE and Western Blotting of the dissolved protein; conditions: 90 minutes, detergent 1.5% by weight
T1 construct: made in house; host or cells: E. coli DW2
T1 sequence (P30878 whole entry): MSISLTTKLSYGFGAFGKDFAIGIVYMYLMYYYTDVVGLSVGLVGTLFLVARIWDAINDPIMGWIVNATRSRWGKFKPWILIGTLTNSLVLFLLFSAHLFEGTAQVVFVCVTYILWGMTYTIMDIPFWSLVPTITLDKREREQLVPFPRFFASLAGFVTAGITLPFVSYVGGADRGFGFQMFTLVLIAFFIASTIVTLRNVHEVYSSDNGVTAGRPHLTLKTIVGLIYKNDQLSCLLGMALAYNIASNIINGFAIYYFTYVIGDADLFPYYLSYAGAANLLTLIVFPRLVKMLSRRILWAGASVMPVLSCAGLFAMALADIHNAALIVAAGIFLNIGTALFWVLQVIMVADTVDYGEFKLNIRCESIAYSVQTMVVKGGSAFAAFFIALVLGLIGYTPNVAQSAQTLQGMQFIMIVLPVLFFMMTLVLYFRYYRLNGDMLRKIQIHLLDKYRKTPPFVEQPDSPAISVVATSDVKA
Experimental: The MelB protein was extracted from a membrane using BTM-C11s or DDM, and the amount and structure of the extracted protein were analyzed through SDS-PAGE and Western Blotting. A concentration of the amphiphilic compound used was 1.5% by weight, and the protein was extracted at four temperatures (0, 45, 55, and 65° C.), and incubated at the same temperature for 90 minutes. Thereafter, an amount of the protein remaining dissolved in an aqueous solution was measured to evaluate two types of performance: protein extraction efficiency and stabilization ability of the compound. The amount of the protein extracted and stabilized with each of the amphiphilic molecules is expressed as a relative value (%) of the entire amount of proteins contained in a membrane sample which is not treated with the amphiphilic molecules.
Specifically, Salmonella typhimurium melibiose permease (MelBSt) having a 10-His tag at the C-terminus thereof was expressed in E. coli DW2 cells (AmelB and AlacZY) using a plasmid pK95ΔAHB/WT MelBSt/CH10. Cell growth and membrane preparation were performed according to the method disclosed in the article by A. S. Ethayathulla et al. (Nat. Commun. 2014, 5, 3009). A protein assay was performed using a Micro BCA kit (Thermo Scientific, Rockford, Ill.). An effect of the isomers (A-BTM-C11, B-BTM-C11, and M-BTM-C11) of the BTM-C11s or DDM on the MelBSt stability was evaluated using the protocol disclosed in P. S. Chae et al. (Nat. Methods 2010, 7, 1003-1008). A membrane sample (having a final protein concentration of 10 mg/mL) containing MelBSt was incubated at four temperatures (0, 45, 55, and 65° C.) for 90 minutes in a solubilizing buffer (20 mM sodium phosphate, pH 7.5, 200 mM NaCl, 10% glycerol, and 20 mM melibiose) containing 1.5% (w/v) DDM or the BTM-C11 isomers. To remove insoluble matter, the sample was ultracentrifuged at 355,590 g at 4° C. for 45 minutes using a Beckman Optima™ MAX ultracentrifuge equipped with a TLA-100 rotor. The dissolved fraction was separated by 16% SDS-PAGE, and then immunoblotted with a Penta-His-HRP antibody (Qiagen, Germantown, Md.). The membrane fraction containing 20 μg of untreated proteins was used to represent the entire MelB, and the treated samples were loaded in each well at the same volume. MelBSt was measured by an ImageQuant LAS 4000 Biomolecular imager (GE Health Care Life Sciences) using a SuperSignal West Pico chemiluminescent substrate.

## CCCCCCCCCCCCO[C@@H]1O[C@H](CO)[C@@H](O[C@H]2O[C@H](CO)[C@@H](O)[C@H](O)[C@H]2O)[C@H](O)[C@H]1O [DDM, n-dodecyl-β-D-maltopyranoside, reference compound]
[1]
  Rh (nm), hydrodynamic radius of micelles: 3.4 ± 0.03 nm
[2]; 0° C.
  MelB protein extraction efficiency / dissolved MelB: high MelB protein extraction efficiency
[2]; 55° C.
  amount of MelB protein remaining dissolved in aqueous solution: approximately 15%
[2]; 65° C.
  amount of dissolved MelB: very small amount of the protein remained
